# Source: patent publication US8524781B2, “Organosulfur compounds, a method of making organosulfur compounds and their use for inhibiting the growth of tumour cells” (University of Cape Town, priority 2008, dated 2013)
# Like-named read-outs stand apart in the source and are kept apart here.
# Columns and labels:
# Type in all cases: cell-based
# WHCO1 cells = assay: MTT assay, inhibition of cell growth of WHCO1 cells; settings: for IC50: WHCO1 oesophageal epithelial cancer cells, MTT, 48 hours incubation
# Description: (§1) The compounds were evaluated for their in vitro ability to inhibit cell growth of cultured tumour cells using the 3-(4,5-dimethylthiazol-2-yl)-2,5-diphenyltetrazolium bromide (MTT) assay. These cell types include:
# 3. WHCO1 cells which are oesophageal epithelial cancer cells; and
# (§2) One oesophageal squamous cell carcinoma cell line WHCO1 originally established from surgical biopsies of primary oesophageal squamous cell carcinomas, a transformed fibroblast cell line CT-1 or human breast epithelial cells MDA-MB-231 were cultured in DMEM containing 10% foetal calf serum and 1% penicillin and streptomycin at 37° C. in a humidified atmosphere of 5% CO2. For the MTT assay, 3×10^3 cells were plated in 96-well plates in 90 μL DMEM per well. Compounds solubilized in DMEM+1% DMSO (10 μl) were added to cells and DMEM+1% DMSO, (10 μl) alone was added to the control to give a final concentration of 0-200 μM compound and 0.1% DMSO. After 48 hours incubation period, 10 μL of the MTT labelling reagent (final concentration 0.45 mg/ml) was added to each well and incubated for 4 hours in a humidified atmosphere at 37° C. One hundred micro litres of the solubilization solution was added to each well and the plates were incubated overnight at 37° C. The spectrophotometric absorbance of the wells was measured at 595 nm using a microtiter plate reader.
# CT-1 cells = assay: MTT assay, inhibition of cell growth of CT-1 cells; settings: CT-1 transformed WI38 fibroblasts, 48 hours incubation, read-out: CT1 IC50
# Description: as §1
# 2. CT-1 cells which are transformed WI38 fibroblasts;
# as §2
# MDA-MB-231 cells = assay: MTT assay, inhibition of cell growth of MDA-MB-231 cells; settings: MDA-MB-231 human breast epithelial cancer cells, 48 hours incubation
# Description: as §1
# 5. MDA-MB-231 cells which are human breast epithelial cancer cells; and
# as §2
Compound,IC50 (WHCO1 cells),IC50 (CT-1 cells),"IC50 (WHCO1 cells; WHCO1, 48 h)",IC50 (MDA-MB-231 cells),"IC50 (CT-1 cells; Homo sapiens, WI-38, 48 h)","activity relative to ajoene at inhibiting growth of WHCO1 oesophageal cancer cells in vitro (WHCO1 cells; compared with ajoene, WHCO1 cells)"
"C=CCSSC=CC[S+]([O-])CCCOCc1ccc(OC)cc1 (mixture of isomers) [Compound Z-9, (E/Z)-12-(p-methoxybenzyloxy)-4,5,9-trithiadodeca-1,6-diene-9-oxide]",16.9 µM,21.7 µM,–,–,–,–
"CCCSSC=CC[S+]([O-])CCC (mixture of isomers) [Compound E-14, (E/Z)-4,5,9-trithiadodeca-6-ene-9-oxide]",33.8 µM,9.32 µM,–,–,–,–
"C=CCSSC=CC[S+]([O-])Cc1ccc(OC)cc1 (mixture of isomers) [EZ-8, (E/Z)-10-(p-methoxyphenyl)-4,5,9-trithiadeca-1,6-diene-9-oxide]",–,–,7.12 µM,6.6 µM,11.2 µM,–
"CCC[S+]([O-])CC=CSSCCCNS(=O)(=O)c1cccc2c(N(C)C)cccc12 (mixture of isomers) [EZ-13, (E/Z)-1-(dansylamino)-4,5,9-trithiadodeca-6-ene-9-oxide]",14.2 µM,17.7 µM,–,42.6 µM,–,–
"COc1ccc(C[S+]([O-])CC=CSSCc2ccc(F)cc2)cc1 (mixture of isomers) [EZ-10, (E/Z)-1-(p-fluorophenyl)-8-(p-methoxyphenyl)-2,3,7-trithiaocta-4-ene-7-oxide]",13.6 µM,–,–,–,–,–
"C=CCSSC=CC[S+]([O-])CCCO (mixture of isomers) [Compound E-4, (E/Z)-4,8,9-trithiadodeca-6,11-diene-1-ol-4-oxide]",26.8 µM,23.1 µM,–,–,–,–
"CCC[S+]([O-])CC=CSSC (mixture of isomers) [Compound E-15, (E/Z)-2,3,7-trithiadeca-4-ene-7-oxide]",47.4 µM,10.3 µM,–,–,–,–
"C=CCSS/C=C/C[S+]([O-])CC=C (stereo not drawn) [E-ajoene, 4,5,9-trithiadodeca-1,6,11-triene-9-oxide, reference compound]",–,–,20.9 µM,–,17.6 µM,–
"C=CCSSC=CC[S+]([O-])C(C)(C)C (mixture of isomers) [EZ-6, (E/Z)-10,10-dimethyl-4,5,9-trithiaundeca-1,6-diene-9-oxide]",25.4 µM,33.1 µM,–,–,–,–
"C=CCSSC=CC[S+]([O-])CCCOCc1ccc(OC)cc1 (mixture of isomers) [Compound E-9, (E/Z)-12-(p-methoxybenzyloxy)-4,5,9-trithiadodeca-1,6-diene-9-oxide]",19.1 µM,23.5 µM,–,–,–,–
"C=CCSS/C=C/C[S+]([O-])CC=C (stereo not drawn) [Z-ajoene, 4,5,9-trithiadodeca-1,6,11-triene-9-oxide, reference compound]",20.5 µM,15.5 µM,–,–,–,–
"C=CCSSC=CC[S+]([O-])Cc1ccccc1 (mixture of isomers) [EZ-7, (E/Z)-10-phenyl-4,5,9-trithiadeca-1,6-diene-9-oxide]",–,–,8.8 µM,–,16.6 µM,–
"C=CCSSC=CC[S+]([O-])CCCN1C(=O)c2ccccc2C1=O (mixture of isomers) [Compound E-5, (E/Z)-12-phthalimido-4,5,9-trithiadodeca-1,6-diene-9-oxide]",68.9 µM,95.9 µM,–,–,–,–
"C=CCSS/C=C\C[S+]([O-])CCC (mixture of isomers) [Compound Z-3, (E/Z)-4,5,9-trithiadodeca-1,6-diene-9-oxide]",–,–,21.6 µM,19.2 µM,17 µM,–
"C=CCSS/C=C/C[S+]([O-])CCC (mixture of isomers) [Compound E-3, (E/Z)-4,5,9-trithiadodeca-1,6-diene-9-oxide]",–,–,35.8 µM,25.9 µM,26.7 µM,–
"C=CCSSC=CC[S+]([O-])CCCN1C(=O)c2ccccc2C1=O (mixture of isomers) [Compound Z-5, (E/Z)-12-phthalimido-4,5,9-trithiadodeca-1,6-diene-9-oxide]",36 µM,34.6 µM,–,–,–,–
"COc1ccc(CSSC=CC[S+]([O-])Cc2ccc(OC)cc2)cc1 (mixture of isomers) [EZ-11, (E/Z)-1-(p-methoxyphenyl)-8-(p-methoxyphenyl)-2,3,7-trithiaocta-4-ene-7-oxide]",1.34 µM,–,–,0.82 µM,–,fifteen times more active than ajoene
"COc1ccc(C[S+]([O-])CC=CSSCc2ccccc2)cc1 (mixture of isomers) [EZ-12, (E/Z)-1-phenyl-8-(p-methoxyphenyl)-2,3,7-trithiaocta-4-ene-7-oxide]",–,–,3.05 µM,1.19 µM,–,–
"C=CCSSC=CC[S+]([O-])CCCO (mixture of isomers) [Compound Z-4, (E/Z)-4,8,9-trithiadodeca-6,11-diene-1-ol-4-oxide]",37.9 µM,22.8 µM,–,–,–,–
